From patent publication US20090068744A1, “VITREOUS CELL LINE” (SENJU PHARMACEUTICAL CO., LTD., priority 2006, published 2009)

System: VEGF mRNA expression by a vitreous cell line
Experiment: VEGF mRNA expression by RT-PCR after cytokine stimulation of the vitreous cell line
Type: cell-based, swine
Details: cytokine 10 ng/ml, up to 48 hours; FIG. 7, FIG. 9
Experimental: Changes of VEGF expression due to cytokine stimulation in the vitreous cell line established in Example 1 were examined. The expression of VEGF at an mRNA level was examined by RT-PCR, and the expression at a protein level was examined by ELISA.
To be specific, when the vitreous cell line reached 50-60% confluent, the medium for the cells was exchanged with DMEM containing 1% bovine serum. […] Total RNA was extracted from the stimulated cells, cDNA was synthesized, and PCR was conducted using VEGF primers. The medium of the stimulated cells was used for ELISA. Since an appropriate antibody to swine VEGF is not available, VEGF protein concentration was measured by ELISA using an antibody to human VEGF, and the result was calculated as a reference value led from a human VEGF standard product. PCR was conducted using TOYOBO KOD plus kit and Gene PCR System 9700 (Applied Biosystem). The conditions of PCR were as follows:
95° C. 120 seconds; (95° C. 15 seconds, 62° C. 30 seconds, 68° C. 30 seconds)×30 cycles; 68° C. 90 seconds. ELISA was entrusted to Mitsubishi BCL.

Row | Substance | VEGF mRNA expression level
1 | IL-1β: cytokine used to stimulate the vitreous cell line (10 ng/ml) | a significant change in the VEGF mRNA expression level was not observed
2 | IL-6: cytokine named among other cytokines used for stimulation | a significant change in the VEGF mRNA expression level was not observed
3 | PDGF-AA: cytokine used to stimulate the vitreous cell line (10 ng/ml) | a significant change in the VEGF mRNA expression level was not observed
4 | TGFβ | a significant change in the VEGF mRNA expression level was not observed
5 | TNFα | a significant change in the VEGF mRNA expression level was not observed

System: HAS2 expression by a vitreous cell line
Experiment: HAS2 mRNA expression by RT-PCR after cytokine stimulation of the vitreous cell line
Type: cell-based, swine
Details: cell line transfected with Smad2, 3 or 4; FIG. 5
Experimental: Next, expression of hyaluronic acid synthase (HAS)2 and the effect of PDGF-BB and/or TGF-β1 on the hyaluronic acid production in the established vitreous cell line were examined. The expression was observed by RT-PCR.
To be specific, when the vitreous cell line was 50-60% confluent, the medium of the cells was exchanged with DMEM containing 1% bovine serum and, after culturing for 24 hr, the cells were stimulated with TGF-β1 (10 ng/ml) and PDGF-BB (10 ng/ml). In a part of the examination, Smad2, 3 or 4 was transfected into the cell line after 6 hr from the medium exchange. The cells and culture supernatant were recovered at 3, 6, 24 and 48 hr after the cytokine stimulation (FIG. 2). Total RNA was extracted from the cells, cDNA was synthesized, and RT-PCR was performed using primers specific to HAS2. Using Roche FastStart High Fidelity PCR System, PCR was performed on Gene Amp PCR System 9700 (Applied Biosystems). The PCR conditions were as follows:
95° C. 2 min.→(95° C. 30 seconds→X° C. 30 seconds→72° C. […])×Y cycle→72° C. 7 min
X=60, Y=25 . . . beta-Actin

Row | Substance | expression of HAS2 under forced expression of Smad2, 3 or 4
6 | TGF-β1: cytokine used to stimulate the vitreous cell line (10 ng/ml) | resulted in the expression of HAS2
